Assay results as given in US8067231B2 (priority 2005, dated 2011).

Test system: Neuro-2A
Type: cell-based, mouse

CC1=C(/C=C/C(C)=C/C=C/C(C)=C/C(=O)O)C(C)(C)CCC1 [all trans retinoic acid, All Trans-Retinoic acid]
BoNT/A SNAP25197-cleavage product (uptake of BoNT/A) after differentiation reagent treatment: increase
